Experimental data from ChEMBL document CHEMBL1130125, “beta-Methylation of the Phe7 and Trp9 melanotropin side chain pharmacophores affects ligand-receptor interactions and prolonged biological activity” (J Med Chem, 1997).

Columns and labels:
[1] = Decrease in lizard skin reflectivity ([…] activity).; type: functional
[2] = target: frog skin melanocortin receptor (Rana pipiens); assay: Decrease in frog skin reflectivity ([…] activity).
lizard = assay: Relative potency compared to alpha MSH in a lizard skin bioassay.; type: functional
[3] = test system: frog skin melanocortin receptor (Rana pipiens); assay: Relative potency compared to alpha MSH in a frog skin bioassay.

Compound	EC50 [1]	EC50 [2]	Relative potency (lizard)	Relative potency [3]
CCCC[C@H](NC(C)=O)C(=O)N[C@H]1CC(=O)NCCCCC(C(N)=O)NC(=O)C([C@H](C)c2c[nH]c3ccccc23)NC(=O)[C@H](CCCN=C(N)N)NC(=O)C(Cc2ccccc2)NC(=O)[C@H](Cc2c[nH]cn2)NC1=O (single isomer, unassigned; 10) [listing 1 of 2 here]	1.43 nM	0.06 nM	–	–
CCCC[C@H](NC(C)=O)C(=O)N[C@H]1CC(=O)NCCCCC(C(N)=O)NC(=O)[C@H](Cc2c[nH]c3ccccc23)NC(=O)[C@H](CCCN=C(N)N)NC(=O)[C@@H]([C@@H](C)c2ccccc2)NC(=O)[C@H](Cc2c[nH]cn2)NC1=O (single isomer, unassigned)	0.3 nM	2 nM	3.3	0.05
CCCC[C@H](NC(C)=O)C(=O)N[C@H]1CC(=O)NCCCC[C@H](C(N)=O)NC(=O)[C@H]([C@@H](C)c2c[nH]c3ccccc23)NC(=O)[C@H](CCCN=C(N)N)NC(=O)[C@@H](Cc2ccccc2)NC(=O)[C@H](Cc2c[nH]cn2)NC1=O	–	–	1	0.23
CCCC[C@H](NC(C)=O)C(=O)N[C@H]1CC(=O)NCCCCC(C(N)=O)NC(=O)[C@H](Cc2c[nH]c3ccccc23)NC(=O)[C@H](CCCN=C(N)N)NC(=O)[C@@H]([C@H](C)c2ccccc2)NC(=O)[C@H](Cc2c[nH]cn2)NC1=O (single isomer, unassigned; 7) [listing 1 of 2 here]	–	–	0.05	0.006
CCCC[C@H](NC(=O)[C@H](CO)NC(=O)[C@H](Cc1ccc(O)cc1)NC(=O)[C@H](CO)NC(C)=O)C(=O)N[C@@H](CCC(=O)O)C(=O)N[C@@H](Cc1c[nH]cn1)C(=O)N[C@H](C(=O)N[C@@H](CCCN=C(N)N)C(=O)N[C@@H](Cc1c[nH]c2ccccc12)C(=O)NCC(=O)N[C@@H](CCCCN)C(=O)N1CCC[C@H]1C(=O)N[C@H](C(N)=O)C(C)C)[C@@H](C)c1ccccc1	3.33 nM	–	–	–
CCCC[C@H](NC(C)=O)C(=O)N[C@H]1CC(=O)NCCCCC(C(N)=O)NC(=O)C([C@H](C)c2c[nH]c3ccccc23)NC(=O)[C@H](CCCN=C(N)N)NC(=O)C(Cc2ccccc2)NC(=O)[C@H](Cc2c[nH]cn2)NC1=O (single isomer, unassigned; 11) [listing 1 of 2 here]	1 nM	0.33 nM	–	–
CCCC[C@H](NC(C)=O)C(=O)N[C@H]1CC(=O)NCCCCC(C(N)=O)NC(=O)[C@H](Cc2c[nH]c3ccccc23)NC(=O)[C@H](CCCN=C(N)N)NC(=O)C([C@@H](C)c2ccccc2)NC(=O)[C@H](Cc2c[nH]cn2)NC1=O (single isomer, unassigned)	3.44 nM	6.25 nM	0.29	0.016
CCCC[C@H](NC(C)=O)C(=O)N[C@H]1CC(=O)NCCCCC(C(N)=O)NC(=O)[C@H](Cc2c[nH]c3ccccc23)NC(=O)[C@H](CCCN=C(N)N)NC(=O)[C@@H]([C@H](C)c2ccccc2)NC(=O)[C@H](Cc2c[nH]cn2)NC1=O (single isomer, unassigned; 5) [listing 1 of 2 here]	0.2 nM	6.25 nM	–	–
CCCC[C@H](NC(C)=O)C(=O)N[C@H]1CC(=O)NCCCCC(C(N)=O)NC(=O)C([C@H](C)c2c[nH]c3ccccc23)NC(=O)[C@H](CCCN=C(N)N)NC(=O)C(Cc2ccccc2)NC(=O)[C@H](Cc2c[nH]cn2)NC1=O (single isomer, unassigned; 11) [listing 2 of 2 here]	–	–	1	0.3
CCCC[C@H](NC(C)=O)C(=O)N[C@H]1CC(=O)NCCCCC(C(N)=O)NC(=O)C([C@H](C)c2c[nH]c3ccccc23)NC(=O)[C@H](CCCN=C(N)N)NC(=O)C(Cc2ccccc2)NC(=O)[C@H](Cc2c[nH]cn2)NC1=O (single isomer, unassigned; 10) [listing 2 of 2 here]	–	–	0.7	1.6
CCCC[C@H](NC(C)=O)C(=O)N[C@H]1CC(=O)NCCCCC(C(N)=O)NC(=O)[C@H](Cc2c[nH]c3ccccc23)NC(=O)[C@H](CCCN=C(N)N)NC(=O)[C@@H]([C@H](C)c2ccccc2)NC(=O)[C@H](Cc2c[nH]cn2)NC1=O (single isomer, unassigned; 5) [listing 2 of 2 here]	–	–	5	0.016
CCCC[C@H](NC(C)=O)C(=O)N[C@H]1CC(=O)NCCCCC(C(N)=O)NC(=O)[C@H](Cc2c[nH]c3ccccc23)NC(=O)[C@H](CCCN=C(N)N)NC(=O)[C@@H]([C@H](C)c2ccccc2)NC(=O)[C@H](Cc2c[nH]cn2)NC1=O (single isomer, unassigned; 7) [listing 2 of 2 here]	20 nM	16.7 nM	–	–
CCCC[C@H](NC(=O)[C@H](CO)NC(=O)[C@H](Cc1ccc(O)cc1)NC(=O)[C@H](CO)NC(C)=O)C(=O)N[C@@H](CCC(=O)O)C(=O)N[C@@H](Cc1c[nH]cn1)C(=O)N[C@@H](C(=O)N[C@@H](CCCN=C(N)N)C(=O)N[C@@H](Cc1c[nH]c2ccccc12)C(=O)NCC(=O)N[C@@H](CCCCN)C(=O)N1CCC[C@H]1C(=O)N[C@H](C(N)=O)C(C)C)[C@@H](C)c1ccccc1 (stereo in doubt; 17)	1 nM	–	–	–
CCCC[C@H](NC(=O)[C@H](CO)NC(=O)[C@H](Cc1ccc(O)cc1)NC(=O)[C@H](CO)NC(C)=O)C(=O)N[C@@H](CCC(=O)O)C(=O)N[C@@H](Cc1c[nH]cn1)C(=O)N[C@@H](C(=O)N[C@@H](CCCN=C(N)N)C(=O)N[C@@H](Cc1c[nH]c2ccccc12)C(=O)NCC(=O)N[C@@H](CCCCN)C(=O)N1CCC[C@H]1C(=O)N[C@H](C(N)=O)C(C)C)[C@@H](C)c1ccccc1 (stereo in doubt; 16)	0.5 nM	–	–	–
CCCC[C@H](NC(C)=O)C(=O)N[C@H]1CC(=O)NCCCC[C@@H](C(N)=O)NC(=O)[C@@H]2Cc3c([nH]c4ccccc34)CN2C(=O)[C@H](CCCNC(=N)N)NC(=O)[C@@H](Cc2ccccc2)NC(=O)[C@H](Cc2cnc[nH]2)NC1=O	20 nM	3.33 nM	–	–
CCCC[C@H](NC(=O)[C@H](CO)NC(=O)[C@H](Cc1ccc(O)cc1)NC(=O)[C@H](CO)NC(C)=O)C(=O)N[C@@H](CCC(=O)O)C(=O)N[C@@H](Cc1c[nH]cn1)C(=O)N[C@H](C(=O)N[C@@H](CCCN=C(N)N)C(=O)N[C@@H](Cc1c[nH]c2ccccc12)C(=O)NCC(=O)N[C@@H](CCCCN)C(=O)N1CCC[C@H]1C(=O)N[C@H](C(N)=O)C(C)C)[C@H](C)c1ccccc1	1 nM	–	–	–
CCCC[C@H](NC(C)=O)C(=O)N[C@H]1CC(=O)NCCCC[C@@H](C(N)=O)NC(=O)[C@H]([C@@H](C)c2c[nH]c3ccccc23)NC(=O)[C@H](CCCN=C(N)N)NC(=O)[C@@H](Cc2ccccc2)NC(=O)[C@H](Cc2c[nH]cn2)NC1=O	1 nM	–	–	–
CCCC[C@H](NC(C)=O)C(=O)N[C@H]1CC(=O)NCCCCC(C(N)=O)NC(=O)[C@H]([C@H](C)c2c[nH]c3ccccc23)NC(=O)[C@H](CCCN=C(N)N)NC(=O)C(Cc2ccccc2)NC(=O)[C@H](Cc2c[nH]cn2)NC1=O (single isomer, unassigned)	6.67 nM	–	0.15	0.004
CCCC[C@H](NC(C)=O)C(=O)N[C@H]1CC(=O)NCCCC[C@@H](C(N)=O)NC(=O)[C@H]2Cc3c([nH]c4ccccc34)CN2C(=O)[C@H](CCCNC(=N)N)NC(=O)[C@@H](Cc2ccccc2)NC(=O)[C@H](Cc2cnc[nH]2)NC1=O	11.1 nM	1 nM	–	–
